From patent US12479940B2, “Amide compound, polymerizable composition, cured material, and method of manufacturing cured material” (ADEKA CORPORATION, priority 2019, dated 2025)

Description: As the polymerization initiator (the water-soluble polymerization initiator), N,N-bis(2-hydroxyethyl)butane-1-aminium=phenyl(2,4,6-trimethylbenzoyl)phosphinate represented by A3, 1-[4-(2-hydroxyethoxy)phenyl]-2-hydroxy-2-methyl-1-propan-1-one represented by A32, and N,N-bis(2-hydroxyethyl)butane-1-aminium=9-oxo-9H thioxanthene-4-carboxylate represented by A57 were used.

solubility in water	Structure (SMILES)
≥ 1 mass %	Cc1cc(C)c(C(=O)P(=O)(O)c2ccccc2)c(C)c1 [A3, N,N-bis(2-hydroxyethyl)butane-1-aminium=phenyl(2,4,6-trimethylbenzoyl)phosphinate]
≥ 1 mass %	CC(C)(O)C(=O)c1ccc(OCCO)cc1 [A32, 1-[4-(2-hydroxyethoxy)phenyl]-2-hydroxy-2-methyl-1-propan-1-one]
